We go through six molecules from patent publication US7648966B2, “Mannose-6-phosphonate compounds for the treatment of inflammatory diseases” (Pharmaxis Pty Limited, priority 2003, dated 2010).

Assay [1] concerns 51Cr-labeled T lymphocyte migration into the spleen. The assay can be described thus: Inhibition of lymphocyte migration into lymphoid tissue (spleen) in vivo. As to conditions: 5 mg per mouse iv with labeled cells; spleens removed 1.5 hours after injection; vs negative controls. Also noted: species or system Balb/c mice. How it is done: Lymphocytes were obtained from spleens of 6-8 week old female specific pathogen-free Balb/c mice (19-21 g). Single cell suspensions prepared by conventional means (pushing through a stainless steel screen). Red blood cells were lysed by treating with a solution of bicarbonate buffered ammonium chloride-EDTA (pH 7.3) and the preparation strained through a Falcon 2350 cell strainer. All cell preparative steps were performed on ice. Cell were suspended in a conventional lymphocyte culture medium (DMEM plus glucose, folic acid, L-asparagine, sodium bicarbonate, L-glutamine, sodium pyruvate, HEPES, 2-mercaptoethanol, penicillin, streptomycin, neomycin, and 2% FCS).
B lymphocytes were depleted by suspending the cells in purified rat anti-mouse CD45/B220 antibody (RA3-6B2 clone; PharMingen, USA) at a concentration of 4×10^7 cells/ml and incubated on ice for 20 minutes. An equal volume of culture medium (as above) was added and the cells centrifuged (200×g) and resuspended at a concentration of 10^7 cells/ml in BioMag goat ant-rat IgG (H&L) (“GARIG”) conjugated to magnetic beads (Bio Mag; Perseptive Diagnostics, Polysciences, Inc., USA). Following a 20 minute incubation on ice, with agitation every 5 minutes, cells binding to the GARIG/anti-CD45/B220 antibody complex were removed using magnetic separation (Dynal MPC-6, Dynal, USA). This procedure was repeated 4 times, resulting in a cell population containing approximately 80-90% T lymphocytes (determined by FACS analysis).
The cells were then washed in Hanks balanced salt solution (HBSS), resuspended in 5 ml of HBSS, and radiolabeled with ^51Cr for 30 minutes at 37° C. (as described above). The labeled cells were washed in PBS, centrifuged (200×g), and a portion were resuspended at a concentration of 3×10^7 cells/ml in either PBS (negative control) or PBS containing phenyl mannoside 6-phosphate (25 mg/ml in PBS; positive control) or PBS containing the test compound (25 mg/ml), and stored on ice. Cell viability was confirmed throughout the procedures by trypan blue exclusion. Balb/c mice were injected intravenously (iv) into the lateral tail vein with 0.2 ml containing 6×10^6 labeled lymphocytes and 0.2 ml of either PBS (negative control), 5 mg positive control or 5 mg test compound. All groups of mice were weight matched (±0.5 g).
Spleens from recipient mice were removed 1.5 hours after injection, and the cell-associated radioactivity was determined using a gamma counter (as above). Results of inhibition of lymphocyte migration into the spleen were expressed as a percentage reduction in the CPM of the spleens from treated animals compared with negative controls.
The phosphono-mannoside compounds of the present invention and their relative inhibition of lymphocyte migration in vivo (compared to negative controls) are presented in Table 2.

Assay [2] is described as follows: Tested for pharmaceutical effectiveness (test not specified). How it is done:
In a similar manner to the foregoing procedure and using the appropriate reagents, the following compounds were prepared.

The subject of assay [3] is MBP-specific T lymphocyte cell lines migrating across rat brain endothelial cell monolayer. The assay can be described thus: Inhibition of T-lymphocyte migration across rat brain endothelial cell layer (Transwell, 51Cr-labeled cells). The class given is cell-based, Lewis rats. As to conditions: 6 hours. As to the method: Preparation of Brain Endothelial Cells (ECs)
Vascular ECs were isolated from rat brain capillaries of 6 to 8 week old Lewis rats according to the method of Risau, W et al., 1990, J. Cell Biol. 110:1757-1766 (which is incorporated herein by reference). Colonies of ECs were purified from astroglial cells and pericytes using anti-Thy1.1-antibody and complement-mediated lysis to remove unwanted Thy1.1+ cells.
The EC colonies were grown, using conventional methods, in Dulbecco's Modified Eagle's Medium (DMEM)-high glucose, supplemented, with 20% fetal calf serum (FCS), glutamine, pyruvate, nonessential amino acids, HEPES buffer and antibiotics (kanamycin, amphotericin), and heparin (all from GIBCO). Cultures were supplemented with 150 μg/ml “endothelial growth supplement” from Collaborative Biomedical Products. Upon reaching confluence, EC cultures were washed with 0.2% EDTA in phosphate buffered saline (PBS), trypsinized (Trypsin-EDTA, 0.1% final concentration), washed and re-treated with anti-Thy1.1 antibody for 40 min, washed and incubated with complement sufficient to lyse all Thy1.1+ cells (Behringwerke, AG, Marburg, Germany) at room temperature.
ECs were then plated on Matrigel®-coated 6.5 mm Transwells, […] (Corning Costar Corporation, Cambridge, Mass.). Presence of ECs and confluence of the monolayer were checked by measuring the electrical resistance (World Precision Instruments, New Haven, U.S.A., model EVOM-G) and by staining with FITC-labeled phalloidin (Sigma).
Myelin Basic Protein (MBP)-Specific T Cell Lines
To study the effect of agents of the present invention on T lymphocyte migration, MBP-specific T lymphocyte cell lines were generated according to the method of Ben-Nun et al., Europ. J. Immunol. 11:195-199 (1981); incorporated herein by reference) starting with lymphocytes from the LNs of Lewis rats that had been immunized with MBP in complete Freund's adjuvant (CFA). These cells were used for migration studies during the first 4 days of their propagation in IL-2-containing medium, following MBP restimulation in the presence of antigen-presenting cells (irradiated spleen or thymus cells from normal Lewis rats).
These stimulated T lymphocytes were radiolabeled with ^51Cr (Na^51Cr04, 37 MBq/ml, Amersham, UK) for 30 minutes at 37° C. with occasional agitation, they were then washed three times with DMEM and placed into the upper chamber of the Transwells at 5×10^5 cells in 100 μl of “migration medium.” Test and control substance were included in the upper wells at final concentrations of 0.1, 1 and 10 mM. Cell migration was assessed visually by light microscopy to gauge progress of the experiment. The experiment was terminated after 6 hours, whereupon the undersurface of the membrane filters were rinsed twice with 100 μl of ice-cold PBS-0.2% EDTA and combined with the medium of the lower chamber of the well. The combined material was counted for radioactivity in a gamma counter (Packard Auto-Gamma 5650 (Downer's Grove Ill., USA) gamma counter. Each “treatment” group was run in triplicate (test agent, control agent (glucose 6-phosphate) and no treatment).
Inhibition values are in comparison with the negative control.

Where [4] appears, read: 10 mM in upper well, compared with negative control.

In the case of “1-(2-methyl,4-trifluoromethyl)-6-phosphonomannoside”, the “% Inhibition of lymphocyte migration into spleens” value in assay [1] stood at 87.3%. Besides, the “pharmaceutical effectiveness as defined herein” value in assay [2] is “pharmaceutically effective”. Besides, in assay [3] (setting [4]), the “% inhibition (±SEM) of T cell migration” value came out at 88 ± 3%.
For “1-(2,4,6-trimethylphenyl)-6-phosphono-manoside”, the “% Inhibition of lymphocyte migration into spleens” value in assay [1] is recorded as 85.5%. Also, the “% inhibition (±SEM) of T cell migration” value in assay [3] (setting [4]) was determined as 80 ± 4%.
Consider `O=P(O)(O)OC[C@H]1OC(Oc2ccccc2)[C@@H](O)[C@@H](O)[C@@H]1O` (stereo partly drawn) [positive control compound, phenyl mannoside 6-phosphate, reference compound], for which the “% Inhibition of lymphocyte migration into spleens” value in assay [1] amounted to 70.5%.
Take “1-(2-methyl,4-fluorophenyl)-6-phosphonomannoside”: the “% Inhibition of lymphocyte migration into spleens” value in assay [1] was 68.0%. The “% inhibition (±SEM) of T cell migration” value in assay [3] (setting [4]) was 53 ± 2%.
Turning to `O=C[C@H](O)[C@@H](O)[C@H](O)[C@H](O)COP(=O)(O)O` [glucose-6-phosphate, reference compound], the inhibition at 10000 µM in assay [3] (Rattus norvegicus, T-cell, 10 mM in upper well, compared with negative control, read-out: % inhibition (±SEM) of T cell migration) is 0%. Besides, in assay [3] (control agent), the “migration value compared with no treatment” value is reported as “not statistically different from no treatment”.
Consider “1-(2-methyl,4-chlorophenyl)-6-phosphono-mannoside”, for which the “% Inhibition of lymphocyte migration into spleens” value in assay [1] worked out at 45.0%. Besides, the “% inhibition (±SEM) of T cell migration” value in assay [3] (setting [4]) was determined as 65 ± 4%.
